The source of these data is patent publication US20220387544A1, “NOVEL THERAPEUTIC USE” (Artios Pharma Limited, priority 2019, published 2022).

What all share (assay type): cell-based
For one assay, the system named is DLD1 colon cancer cells. Kind of assay: CRISPR-Cas9 KO synthetic lethality screen. To be noted: compound at approximate EC20, 15 days, vs DMSO. How it is done:
The CRISPR KO screen, sample preparation and data analysis were performed by Horizon Discovery using a CRISPR library against 1965 genes with 10 gRNA's per gene. DLD-1 colon cancer cells were grown in RPMI medium with 10% FBS, infected with the lentiviral library (each viral particle containing Cas9 and sgRNA), selected with puromycin for 2 weeks, and treated with compound B (EC17.1%) or DMSO for 15 days. Synthetic lethality scores were calculated by normalizing the sgRNA count from compound treated cells to DMSO treated control.
The synthetic lethal effect between Polθ inhibitor (Compound B) and knockout of any one of 1965 genes in DLD1 colon cancer cell line was assessed. A CRISPR KO screen was performed in DLD1 cells using compound B at an approximate EC20, using DMSO-exposed cells (the compound vehicle) as control. The quantity of cells containing each sgRNA was measured via next generation sequencing. (FIG. 5(a)) REV7 was in the Top 50 hits out of the […] genes screened, based on FDR score together with comparison to a validated synthetic lethal partner BRCA2. (b) Based on the log fold change, REV7 was in the top 25 hits. […] 7 out of 10 gRNA's were synthetic lethal with Polθ inhibition.

Assay [1] has as its system parental and C20orf196 KO SUM149 tumouroids. Kind of assay: Tumouroid assay, parental vs C20orf196 KO SUM149. How it is done: (§1) Cells were seeded into a hydrogel containing 10% rat tail collagen (OcellO) in 384-well high content imaging microplates at varying densities to compensate for differential growth characteristics (Table 2).
(§2) 24 hours after seeding, test compounds and olaparib (Selleckchem) were added in an eight-point dose range with a one in three serial dilution (maximum concentration 12 μM for all compounds, except 30 μM compound A for REV7 KO cell experiments). Dimethyl sulfoxide (DMSO) and 1 μM staurosporine (Med Chem Express) treatments were included as negative and positive controls, respectively. All treatments were carried out in quadruplicate.
After seven or fourteen days of treatment for 20orf196 KO and REV7 KO experiments respectively, cells were fixed with 5× Fix & Stain solution (OcellO) for 16 hours at 4° C. to stain both the nuclei using Hoechst 33258 and the actin cytoskeleton using Rhodamine-Phalloidin. Cells were washed four times with phosphate-buffered saline (PBS), and plates were imaged and analysed using OcellO's three-dimensional image analysis software (Ominer). For each well, two channels of 16-bit image stacks were collected using an automated microscope system: Molecular Devices ImageXpress Micro XLS, equipped with a 4× magnification/0.2NA PlanApo objective. For each image slice (n=47), pixel size was 0.324 μm and step size in z-direction was 50 μm.
Parental or C20orf196 KO SUM149 cells were seeded into a collagen-containing hydrogel in 384-well plates and incubated overnight. The resulting tumouroids were treated with a serial dilution of Polθ inhibitor or olaparib for seven days, fixed, and stained to visualise DNA and F-actin. Plates were imaged, and tumouroid size was measured using OcellO's three-dimensional image analysis software.
Parental or C20orf196 KO SUM149 cells were seeded into a collagen-containing hydrogel in 384-well plates and incubated overnight. The resulting tumouroids were treated with a serial dilution of Polθ inhibitor or olaparib for seven days, fixed, and stained to visualise DNA and F-actin. Plates were imaged, and the number of nuclei per tumouroid was counted using OcellO's three-dimensional image analysis software.
Parental or C20orf196 KO SUM149 cells were seeded into a collagen-containing hydrogel in 384-well plates and incubated overnight. The resulting tumouroids were treated with Polθ inhibitor, olaparib or control compound (at the concentrations indicated) for seven days, fixed, and stained to visualise DNA and F-actin. Plates were imaged, and the fraction of nuclei without an associated actin cytoskeleton was calculated using OcellO's three-dimensional image analysis software.

The test system of assay [2] is SUM149 Parental and C20orf196 KO SUM149 cells. Kind of assay: Clonogenic survival assay (ICR), SUM149 C20ORF196 KO clones. Here is the method:
(§3) Clonogenic survival assays were performed as previously described (Edwards et al Nature (2008) 451, 1111-1115; Farmer et al Nature (2005) 434, 917-921). For measurement of sensitivity to Compound A inhibitor, exponentially growing cells were seeded in six-well plates at a concentration of 1000-2000 cells per well. For Compound A, cells were continuously exposed to the drug with media and drug replaced every 72 h. After 14 days, cells were fixed and stained with sulphorhodamine-B (Sigma) and colonies were counted. SFs were calculated and drug sensitivity curves plotted as previously described (Farmer et al Nature (2005) 434, 917-921).
Parental or C20orf196 KO SUM149 cells were seeded into 6 well plates and incubated overnight. The cells were then exposed to a serial dilution of Polθ inhibitor or olaparib for 14 days, fixed, and stained with sulphorhodamine B. The colonies in each well were counted and normalised survival data plotted to generate a dose-response curve, as described before.

The subject of assay [3] is Parental and REV7 KO SUM149 cells. Kind of assay: Clonogenic survival assay (ICR), SUM149 REV7 KO clones. To be noted: REV7 KO clones vs parental SUM149, 14 days. Here is the method: as §3
Parental or REV7 KO SUM149 cells were seeded into 6 well plates and incubated overnight. The cells were then treated with a serial dilution of Polθ inhibitor or olaparib for 14 days, fixed, and stained with sulphorhodamine B. The colonies in each well were counted and normalised survival data plotted to generate a dose-response curve.

In assay [4] the test system is parental and SHLD2 KO HCC1395 cells. Kind of assay: Colony formation assay, HCC1395. The following applies: SHLD2 KO vs parental HCC1395 cells, colony solubilisation protocol. How it is done:
(§4) 1 mL of cells were seeded per well in a 24-well plate in triplicate and incubated overnight at 37° C. Cells were treated with a seven-point dose response curve with a one-in-three serial dilution of compound for the timepoints listed in Table 5. For MDA-MB-436 cells media was replenished every five days.
(§5) Cells were fixed with 70% ethanol for 20 minutes at room temperature with shaking. Cells were then stained with 0.04% Crystal Violet (Sigma Aldrich) for 20 minutes at room temperature with shaking. Cells were washed 6 times with water and air-dried overnight.
(§6) Plates were imaged using a Gelcount (Oxford Optronix), and colonies were counted using parameters optimized for each cell line. […] Colonies were solubilized using 10% acetic acid (VWR) for 30 minutes, absorbance at 595 nm was read using the Clariostar plate reader (BMG Labtech), and blank correction was applied. Relative Survival was calculated by normalization of compound treated wells to DMSO treated wells.
The effect of a DNA polymerase theta […] inhibitor (Compound A) and the PARP inhibitor olaparib on the survival of parental and SHLD2 deleted (SHLD2 KO) HCC1395 cells was investigated by colony formation assay. Briefly, each population was seeded at low density, incubated with different concentrations of the compound and the relative survival normalized to untreated cells was measured with the colony solubilisation protocol.

In assay [5] the test system is parental and REV7 KO 22Rv1 cells. Kind of assay: Colony formation assay, 22Rv1. The following applies: REV7 KO vs REV7 wild type parental 22Rv1 cells, 2 weeks. How it is done: as §4, §5
Plates were imaged using a Gelcount (Oxford Optronix), and colonies were counted using parameters optimized for each cell line. 22Rv1 viability curves were generated from the colony counts alone. MDA-MB-436 and […] viability curves were generated from solubilized colonies. Colonies were solubilized using 10% acetic acid (VWR) for 30 minutes, absorbance at 595 nm was read using the Clariostar plate reader (BMG Labtech), and blank correction was applied. Relative Survival was calculated by normalization of compound treated wells to DMSO treated wells.
The effect of a DNA polymerase theta (Polθ) inhibitor (Compound A) or the PARP inhibitor olaparib on the survival of parental (REV7 wild type) or REV7 deleted (REV7 KO) 22Rv1 cells was investigated in colony formation assays (CFA—see protocol above). […]

Assay [6] deals with parental and REV7 KO SUM149 tumouroids. Kind of assay: Tumouroid assay, parental vs REV7 KO SUM149. The following applies: fourteen days treatment. Here is the method: as §1, §2
After seven or fourteen days of treatment for 20orf196 KO and REV7 KO experiments respectively, cells were fixed with 5× Fix & Stain solution (OcellO) for 16 hours at 4° C. to stain both the nuclei using Hoechst 33258 and the actin cytoskeleton using Rhodamine-Phalloidin. Cells were washed four times with phosphate-buffered saline (PBS), and plates were imaged and analysed using OcellO's three-dimensional image analysis software (Ominer). […]
Parental or REV7 KO SUM149 cells were seeded into a collagen-containing hydrogel in 384-well plates and incubated overnight. […] Plates were imaged, and the fraction of nuclei without an associated actin cytoskeleton was calculated using OcellO's three-dimensional image analysis software.

Assay [7] relates to parental and SHLD2 KO MDA-MB-436 cells. Kind of assay: Colony formation assay, MDA-MB-436. To be noted: SHLD2 KO vs parental MDA-MB-436 cells, colony solubilization protocol. How it is done: as §4, §5, §6
The effect of a DNA polymerase theta (Polθ) inhibitor (Compound A) and the PARP inhibitor olaparib on the survival of parental and SHLD2 deleted (SHLD2 KO) MDA-MB-436 cells was investigated by colony formation assay. Briefly, each population was seeded at low density, incubated with different concentrations of the compound and the relative survival normalized to untreated cells was measured with the colony solubilization protocol.

Assay [8] has as its system Shieldin-defective, PARPi-resistant SUM149 cells. Kind of assay: Re-sensitisation to olaparib. To be noted: deletion of C20orf196 or 53BP1 or expression of BRCA1 in SUM149; olaparib 1 μM 10 days. Here is the method: For measurement of re-sensitisation to Olaparib, exponentially growing cells were exposed to Compound A for 48 hours. After, cells were seeded in 96-well plates at a concentration of 1000-2000 cells per well. 24 hours post-seeding, Olaparib treatment was initiated and cells were continuously exposed to the drug with media and drug replenished every 72 hours. After 10 days, cell viability was estimated using Cell-Titre Glo (Promega). SFs were calculated and drug sensitivity curves plotted as previously described (Farmer et al Nature (2005) 434, 917-921).
Briefly, parental SUM149 cells or derivatives with either BRCA1 restored or with genetic deletion of either C20orf196 or 53BP1 were treated with Compound A in a tissue culture flask for 48 hours. The cells were then washed before seeding at low density in 96 well plates. 24 hours post seeding, cells were incubated with either olaparib or DMSO for a further 10 days. The relative survival normalised to untreated cells was measured using Cell-Titre Glo.

The mark [9] stands for this setting: in C20orf196 KO cells when compared with olaparib.
Where [10] appears, read: C20orf196 KO vs parental SUM149 tumouroids, seven days treatment.

“Also recorded” adds a separate entry of the source.

With `Cc1cccc(N(C)C(=O)[C@@H]2C[C@H](O)CN2c2nc(C)cc(C(F)(F)F)c2C#N)c1` [Compound B, (2S,4S)-1-(3-cyano-6-methyl-4-(trifluoromethyl)pyridin-2-yl)-4-hydroxy-N-methyl-N-(m-tolyl)pyrrolidine-2-carboxamide], in the assay on DLD1 colon cancer cells, the “REV7 gRNA's synthetic lethal with Polθ inhibition, out of 10” value is 7 and the “position of REV7 among hits based on log fold change” value is given as at most 25. Besides, in assay [1] (setting [9]), the cell death result was “significantly more cell death”, the “reduction in the number of nuclei per tumoroid” value is reported as “greater reduction in the number of nuclei per tumoroid” and the “reduction in tumoroid size” value is on record as “greater reduction in tumoroid size”.

`O=C(c1cc(Cc2n[nH]c(=O)c3ccccc23)ccc1F)N1CCN(C(=O)C2CC2)CC1` [olaparib, reference compound]: the “sensitivity by reduction in number of colonies” value is listed as “more resistant” in [2] (C20orf196 KO clones vs parental SUM149, 14 days) and “resistance; also recorded: more resistant” in [3]. Further, the “sensitivity of parental SUM149 cells” value in assay [2] (parental SUM149 (BRCA1 mutation), 14 days) is reported as “hypersensitive”. The “sensitivity by relative survival” value in assay [4] is “significantly more resistant”; in [7], “trend for increased resistance”. Further, the “sensitivity by relative survival (colonies)” value in assay [5] is listed as “still retain resistance”. For the same compound, the “cell death (fraction of dead cells)” value was “less cell death” in assay [6] and “significantly less cell death” in [1] (C20orf196 KO vs parental SUM149 tumouroid cultures, seven days treatment). In assay [8], the resistance to olaparib entry is “induces resistance; also recorded: marked resistance”. Besides, in assay [1] (setting [10]), the “sensitivity by reduction in number of nuclei per tumouroid” value was “less sensitive”. The “sensitivity by reduction in tumouroid size” value in assay [1] (setting [10]) is listed as “less sensitive”.
